Key:
Type in all cases: in vivo, human
[1] = Determination of bilirubin in blood samples of patients after partial liver resection
Description: (§1) Adenosine group: The members of this group were experiencing liver trauma during resection and additional organ ischemia during resection (Pringle-manoeuvre, duration 30 to 45 minutes). Liver protection was realised by intermitting central venous administration of adenosine (infusion duration 10 minutes, 120 to 150 µg/kg body weight/min) 20 minutes prior to resection/ischemia, and a new continuous infusion immediately after reperfusion (infusion duration 70 to 90 minutes, 120 to 150 µg/kg body weight/min).
(§2) The following tests were carried out in order to assess the post-operational organ functions: • 1. Quick test • 2. Determination of the bilirubin • 3. Lactate for monitoring the energetic situation
Any of the results obtained by applying these tests on blood samples taken from the members of the various study groups, are depicted in table 1: Table 1: […]

[2] = test system: beta 2 adhesion molecules on circulating granulocytes; assay: Granulocyte function: expression of beta 2-integrins on circulating granulocytes, FACScan with FITC marked anti-CD18 antibody (Fig. 3); conditions: observed immediately after ischemia and reperfusion; adenosine administered prior and after ischemia; vs. control groups 1 and 2
Description: as §1
(§3) To assess protection conferred by adenosine on the anti-inflammation branch, both interleukin 6 and granulocyte functions were determined, whereby the results are presented in Figs. 2 and 3.
The further parameter for anti-inflammation, i. e. granulocyte function, was measured as the inhibition of potential cytotoxic functions of white blood cells due to liver ischemia which was measured using the expression of beta 2-intergrins through the monoclonal anti-CD18 antibody. More particularly, the expression was determined prior to ischemia and 3, 30 and 120 minutes after reperfusion. The cells were analysed using a FACScan and a FITC marked anti-CD18 antibody. […] As indicated in Fig. 3 $ p < 0.05 vs. control group 1, # p < 0.05 vs. control group 2.

interleukin 6 = assay: Interleukin 6 titre in blood of patients before and after liver resection (Fig. 2); conditions: post-procedure increase, first and second day after resection; adenosine group vs. control groups; three to five patients per group
Description: as §1, §3
As depicted in Fig. 2, the level of interleukin 6 increased in any of the four groups, whereby each group consisted of three to five patients. Such increase is typically observed as a post-procedure reaction. The serum titres of the pro-inflammatory cytokine interleukin 6 can increase by three magnitudes compared to the pre-procedure titre and were highest in control group 2, where both surgical liver trauma and ischemia/reperfusion were combined.

[3] = Lactate in serum for monitoring the energetic situation after partial liver resection
Description: as §1, §2
(§4) Any of the results obtained by applying these tests on blood samples taken from the members of the various study groups, are depicted in table 1: Table 1:
Also using lactate as a parameter for cytoprotective effects confirms the significant effectiveness of adenosine administration. The lactate concentration in serum is regarded as a marker for the extent of anaerobic metabolism due to lack of oxygen caused by a cellular lack of energy. The lactate concentrations in the serum are highest post-procedure in group 2, where surgical liver trauma and ischemia/reperfusion was combined.

[4] = Quick test (prothrombin time) on blood samples of patients after partial liver resection
Description: as §1, §2, §4
The quick test serves as a parameter for the assessment of the protein synthesis performance of the liver after the procedure.

[5] = first postoperative day, adenosine 120 to 150 µg/kg body weight/min prior to resection/ischemia and after reperfusion, mean
[6] = second postoperative day, same regimen, mean

In the case of `Nc1ncnc2c1ncn2[C@@H]1O[C@H](CO)[C@@H](O)[C@H]1O` [Adenosine, adenosine], the bilirubin concentration ([1]; adenosine group, post-procedure vs. pre-procedure values) is reported as “remained unchanged compared to pre- procedure values”, the bili-1 [1, 5] is reported as “#0,6 mg/dI” and the bili pre ([1]; preoperative baseline, bilirubin, mean of adenosine group, norm <1,0) is reported as 0,4 mg/dI. The bili-2 [1, 6] was “#0,5 mg/dI”, the “activation of granulocytes circulating in the blood” value [2] was “effectively avoided” and the “IL 6 titre” value (interleukin 6) was “significantly less pronounced”. For the same molecule, the Lactate-1 [3, 5] was 1,8 mmo I/I, the “initial increase in the lactate on the first post-procedure day” value ([3]; intravenous systemic administration of adenosine prior and after resection and ischemia, compared with control group 2) was “less pronounced” and the Lactat pre ([3]; preoperative baseline, lactate-concentration, mean of adenosine group, norm <2) was <1,0 mmo I/I. For the same molecule, the Lactate-2 [3, 6] was 1,2 mmo I/I, the “value of the quick test on the first and second day after surgery (liver synthesis performance)” value ([4]; adenosine group compared with the control groups) was “higher in the adenosine group” and the “PT(Quick)1” value ([4]; first postoperative day, partial liver resection with Pringle-manoeuvre 30 to 45 minutes, adenosine central venous 120 to 150 µg/kg body weight/min, 10 minutes given 20 minutes prior to resection/ischemia and 70 to 90 minutes after reperfusion, mean) was “#*66%”. The “PT(Quick)pre” value ([4]; preoperative baseline, Prothrombin Time expressed as Quick-values, mean of adenosine group, norm 70-100 %) was 100% and the “PT(Quick)2” value [4, 6] was 72%.

Source: EP1582213A1, “Use of adenosine for treating surgery related ischemia” (Ludwig-Maximilians-Universität München, priority 2004, dated 2005)
